Measurements reported in patent US20160287672A1, “METHOD OF TREATING CHRONIC HEART FAILURE BY ADMINISTERING RELAXIN” (priority 2008, published 2016).
Read-outs that look alike come from different tables or passages of the source.

Tests used:
[1] = system: systemic sclerosis patients; conditions: scleroderma patients (Seibold et al. 2000); cited from earlier work
[2] = system: systemic sclerosis patients; assay: Clinical trials of relaxin by continuous subcutaneous infusion for six months in systemic sclerosis patients; type: in vivo, human; conditions: continuous SQ infusion for six months
Description: Clinical trials with relaxin have also been conducted on systemic sclerosis patients. 257 human subjects who suffer from systemic sclerosis, a serious fibrotic disease, have been treated with relaxin by continuous and subcutaneous (SQ) infusion for six months. […] These findings support the hypothesis that relaxin administration was associated with balanced systemic and renal vasodilation.

[3] = system: healthy volunteers; conditions: cited from earlier work
[4] = system: patients with chronic and stable compensated congestive HF; assay: Open-label pilot study of IV recombinant relaxin over 24 hours in chronic heart failure patients; type: in vivo, human; conditions: for CI Change from baseline / CO Change from baseline / DBP Change from baseline / HR Change from baseline / PAP Change from baseline / PCWP Change from baseline / PVR Change from baseline / RAP Change from baseline / SBP Change from baseline / SVR Change from baseline: 8 hr, mean ± SD
Experimental: Overview. In this open-label study 16 patients with chronic and stable compensated congestive HF were enrolled in three dose-ascending cohorts of recombinant intravenous relaxin (10 to 960 mcg/kg/day) over 24 hours. Relaxin produced increases in cardiac index and stroke volume, and a decrease in pulmonary wedge pressure and NT-pro BNP. It improved markers of renal function, with a small rebound at the highest dose during post-infusion. […] A maximally tolerated dose was determined.
Design of Study. In this single-center, open-label study, 16 patients who fulfilled inclusion and but not exclusion criteria for chronic and stable compensated congestive HF were sequentially allocated to three ascending cohorts of intravenous (IV) relaxin. Main inclusion criteria included: Age >18 years; NYHA CHF Class II-III without restriction on etiology; left ventricular ejection fraction <35% within 6 months of enrollment; receiving established oral HF therapy expected to remain unchanged during the study period. Main exclusion criteria included: Wedge pressure <16 mmH or CI >2.5 L/min/m2; acute coronary syndrome (within 4 weeks) or recent myocardial infarction or cardiac surgery (within 6 months); AHF requiring intravenous therapy at baseline; systolic blood pressure <85 mmHg; uncorrected valvular heart disease, except for relative mitral and/or tricuspid valve insufficiency; obstructive or restrictive cardiomyopathy; recent episode of ventricular tachycardia or fibrillation (within 4 weeks); recent stroke (within 3 months); creatinine >2.0 mg/dl or serum transaminases and/or total bilirubin >2.5 times the upper limit of normal at screening visit; history of endometriosis.
The study drug was relaxin (produced by recombinant technology). Recombinant relaxin is identical to the native human hormone H2 relaxin. The dose escalation was as follows: Group A included sequential treatment for 8 hours each with dosages equivalent to 10, 30, and 100 mcg/kg/day. Group B included sequential treatment for 8 hours each with dosages equivalent to 240, 480, and 960 mcg/kg/day. Group C received 24 hours of treatment with 960 mcg/kg/day. Escalation from Group A to Group B was done after examining safety and tolerability of the doses used in Group A. Escalation from Group B to C occurred after the safety and tolerability of the highest dose in Group B (960 mcg/kg/day) was determined.
Patients were monitored in the intensive care unit for the infusion and post-infusion periods (24 hours either). Hemodynamic measurements, including CI, SVR, PCWP, SBP, RAP, and PVR, were serially performed using Swan-Ganz and arterial catheters. Likewise, clinical and laboratory monitoring was carried out serially throughout infusion and post-infusion and on Day 9 after beginning of infusion. An additional 30-day evaluation for serious adverse events was performed by phone. Endpoints included hemodynamic and neurohumoral (NT-pro BNP levels) changes from baseline, as well as monitoring of vital signs, electrocardiogram, serum chemistry, and hematology parameters throughout the study. For statistical analysis, an error probability of P<0.05 was regarded as significant. Baseline values were compared using the Kruskal-Wallis ANOVA on ranks followed by Dunn's test. Differences over time within the single groups (hemodynamics, renal parameter, and peptide levels) were analyzed with a Friedman Repeated Measures Analysis of Variance on Ranks followed by Dunn's test for comparison against the baseline.

For “relaxin: Study drug produced by recombinant technology, identical to the native human hormone H2 relaxin; peptide hormone of A and B chains”, the predicted creatinine clearance [1] is listed as “sustained amelioration”, the blood pressure [2] is listed as “stable decreases in blood pressure” and the predicted creatinine clearance [2] is listed as “statistically significant increase”. For the same substance, the serious hypotensive events [2] was “did not experience any serious hypotensive events”, the renal blood flow [3] was “increases renal blood flow” and the creatinine increases post-infusion ([4]; Day 9, after doses equivalent to 960 mcg/kg/day IV) was ≤ 0.5 mg/dL. The “CI Change from baseline” value ([4]; Group A, 10 mcg/kg/d IV) was 0.08 ± 0.3 L/min/m2, the “CO Change from baseline” value ([4]; Group A, 10 mcg/kg/d IV) was 0.13 ± 0.5 L/min and the “DBP Change from baseline” value ([4]; Group A, 10 mcg/kg/d IV) was −3.0 ± 4.2 mmHg. For the same substance, the “HR Change from baseline” value ([4]; Group A, 10 mcg/kg/d IV) was 3.3 ± 7.6 beats/min, the “PAP Change from baseline” value ([4]; Group A, 10 mcg/kg/d IV) was −3.75 ± 4.1 mmHg and the “PCWP Change from baseline” value ([4]; Group A, 10 mcg/kg/d IV) was −1.8 ± 1.9 mmHg. For the same substance, the “PVR Change from baseline” value ([4]; Group A, 10 mcg/kg/d IV) was −17.3 ± 60.5 dynes * sec/cm5, the “RAP Change from baseline” value ([4]; Group A, 10 mcg/kg/d IV) was 0.8 ± 0.9 mmHg and the “SBP Change from baseline” value ([4]; Group A, 10 mcg/kg/d IV) was −12.5 ± 9.3 mmHg. The “SVR Change from baseline” value ([4]; Group A, 10 mcg/kg/d IV) was −143 ± 140 dynes * sec/cm5, the “CI Change from baseline” value ([4]; Group A, 30 mcg/kg/d IV) was 0.25 ± 0.4 L/min/m2 and the “CO Change from baseline” value ([4]; Group A, 30 mcg/kg/d IV) was 0.45 ± 0.6 L/min. For the same substance, the “DBP Change from baseline” value ([4]; Group A, 30 mcg/kg/d IV) was 2.5 ± 10.9 mmHg, the “HR Change from baseline” value ([4]; Group A, 30 mcg/kg/d IV) was 2.3 ± 16.2 beats/min and the “PAP Change from baseline” value ([4]; Group A, 30 mcg/kg/d IV) was −4.0 ± 5.5 mmHg. For the same substance, the “PCWP Change from baseline” value ([4]; Group A, 30 mcg/kg/d IV) was −5.0 ± 2.6 mmHg, the “PVR Change from baseline” value ([4]; Group A, 30 mcg/kg/d IV) was −0.5 ± 56.7 dynes * sec/cm5 and the “RAP Change from baseline” value ([4]; Group A, 30 mcg/kg/d IV) was −1.0 ± 1.8 mmHg. For the same substance, the “SBP Change from baseline” value ([4]; Group A, 30 mcg/kg/d IV) was −5.3 ± 16.8 mmHg, the “SVR Change from baseline” value ([4]; Group A, 30 mcg/kg/d IV) was −171 ± 159 dynes * sec/cm5 and the “CI Change from baseline” value ([4]; Group A, 100 mcg/kg/d IV) was 0.25 ± 0.2 L/min/m2. For the same substance, the “CO Change from baseline” value ([4]; Group A, 100 mcg/kg/d IV) was 0.45 ± 0.2 L/min, the “DBP Change from baseline” value ([4]; Group A, 100 mcg/kg/d IV) was −5.0 ± 3.7 mmHg and the “HR Change from baseline” value ([4]; Group A, 100 mcg/kg/d IV) was 0.5 ± 1.3 beats/min. For the same substance, the “PAP Change from baseline” value ([4]; Group A, 100 mcg/kg/d IV) was −4.5 ± 4.2 mmHg, the “PCWP Change from baseline” value ([4]; Group A, 100 mcg/kg/d IV) was −3.5 ± 3.7 mmHg and the “PVR Change from baseline” value ([4]; Group A, 100 mcg/kg/d IV) was −25.3 ± 28.9 dynes * sec/cm5. For the same substance, the “RAP Change from baseline” value ([4]; Group A, 100 mcg/kg/d IV) was −0.8 ± 1.2 mmHg, the “SBP Change from baseline” value ([4]; Group A, 100 mcg/kg/d IV) was −13.0 ± 8.3 mmHg and the “SVR Change from baseline” value ([4]; Group A, 100 mcg/kg/d IV) was −288 ± 92 dynes * sec/cm5. For the same substance, the “time course of NT-pro BNP” value ([4]; Group B) was “no change”, the “CI Change from baseline” value ([4]; Group B, 240 mcg/kg/d IV) was 0.28 ± 0.2 L/min/m2 and the “CO Change from baseline” value ([4]; Group B, 240 mcg/kg/d IV) was 0.62 ± 0.4 L/min. For the same substance, the “DBP Change from baseline” value ([4]; Group B, 240 mcg/kg/d IV) was 3.0 ± 6.0 mmHg, the “HR Change from baseline” value ([4]; Group B, 240 mcg/kg/d IV) was 1.7 ± 6.7 beats/min and the “PAP Change from baseline” value ([4]; Group B, 240 mcg/kg/d IV) was −1.7 ± 1.6 mmHg. The “PCWP Change from baseline” value ([4]; Group B, 240 mcg/kg/d IV) was −1.5 ± 1.9 mmHg, the “PVR Change from baseline” value ([4]; Group B, 240 mcg/kg/d IV) was −14.8 ± 16.9 dynes * sec/cm5 and the “RAP Change from baseline” value ([4]; Group B, 240 mcg/kg/d IV) was 0.3 ± 1.4 mmHg. For the same substance, the “SBP Change from baseline” value ([4]; Group B, 240 mcg/kg/d IV) was −2.5 ± 7.4 mmHg, the “SVR Change from baseline” value ([4]; Group B, 240 mcg/kg/d IV) was −150 ± 138 dynes * sec/cm5 and the “CI Change from baseline” value ([4]; Group B, 480 mcg/kg/d IV) was 0.17 ± 0.3 L/min/m2. The “CO Change from baseline” value ([4]; Group B, 480 mcg/kg/d IV) was 0.33 ± 0.7 L/min, the “DBP Change from baseline” value ([4]; Group B, 480 mcg/kg/d IV) was 0.0 ± 7.2 mmHg and the “HR Change from baseline” value ([4]; Group B, 480 mcg/kg/d IV) was −1.8 ± 4.5 beats/min. The “PAP Change from baseline” value ([4]; Group B, 480 mcg/kg/d IV) was 1.7 ± 2.7 mmHg.
